Results from patent publication US20220040115A1, “PHARMACEUTICAL COMPOSITIONS AND DELIVERY SYSTEMS FOR PREVENTION AND TREATMENT OF CANDIDIASIS” (INDIAN INSTITUTE OF TECHNOLOGY HYDERABAD, priority 2018, published 2022).

Key:
[1] = system: Candida albicans; assay: Inhibition zone test of oil compositions on Candida albicans (Example 1); assay type: cell-based; set-up: unit not given here
Experimental: Different two-oil and three-oil compositions with varying ratios were prepared in order to check the performance of the oils for inhibition of Candida albicans. Fluconazole and saline were used as positive and negative controls, respectively.

[2] = system: Candida albicans; assay: Antifungal activity (zone of inhibition) of microcapsules and bacterial cellulose loaded microcapsules; assay type: cell-based
Source text: The anti-fungal activity of the microcapsules and cellulosic matrices were checked for inhibition of Candida albicans. The studies are depicted in FIG. 15, FIG. 16, FIG. 17 and FIG. 18.

SMILES	Inhibition zone diameter ([1]; volume 50 μL, 24 hrs)	Inhibition zone diameter ([1]; volume 100 μL, 24 hrs)	Inhibition zone diameter ([1]; volume 150 μL, 24 hrs)	Inhibition zone diameter ([1]; volume 200 μL, 24 hrs)	Inhibition zone diameter ([1]; 200 μg, time period 24 hrs)	Inhibition zone diameter ([1]; 200 μg, time period 48 hrs)	Inhibition zone diameter ([1]; 200 μg, time period 72 hrs)	Zone of inhibition ([2]; 24 hrs)	Zone of inhibition ([2]; 48 hrs)	Zone of inhibition ([2]; 72 hrs)
Cc1ccc(C(C)C)cc1O [Carvacrol, 5-Isopropyl-2-methylphenol]	3.2	3.8	4.5	5.1						
C=CCc1ccc(O)c(OC)c1 [Eugenol, 2-Methoxy-4-(prop-2-en-1-yl) phenol]	2.0	3.5	4.1	4.3						
OC(Cn1cncn1)(Cn1cncn1)c1ccc(F)cc1F [Fluconazole]					5.3	4.5	3.4	3.5 ± 0.1	1.8 ± 0.1	1.5 ± 0.1
Cc1ccc(C(C)C)c(O)c1 [Thymol, 2-isopropyl-5-methylphenol]	2.5	3.1	3.9	4.2						
